Like-named read-outs stand apart in the source and are kept apart here. Marks after values point to notes of the source that are not given here.
How the values were obtained:
[1] = test system: methicillin-resistant Staphylococcus aureus MRSA-2 (clinical isolate); assay: MIC broth microdilution, MRSA-2; assay type: cell-based
Method: (§1) The minimum inhibitory concentration (MIC) for each tested compound was determined by the broth microdilution method as recommended by the Clinical and Laboratory Standards Institute (CLSI). In a 96-well plate, eleven two-fold serial dilutions of each compound were made in a final volume of 100 μL Luria Broth. Each well was inoculated with ˜10^5 bacterial cells at the initial time of incubation, prepared from a fresh log phase culture (OD600 of 0.5 to 1.0 depending on bacterial strain). The MIC was defined as the lowest concentration of compound that prevented bacterial growth after incubating 16 to 18 hours at 37° C. (MIC values were supported by spectrophotometric readings at OD600). DMSO served as our vehicle and negative control in each microdilution MIC assay. DMSO was serially diluted with a top concentration of 1% v/v.
as §1, with “for each compound was” for “for each tested compound was”, “Standards Institute (CLSI).^6 In a” for “Standards Institute (CLSI). In a”, “concentration of test compound that” for “concentration of compound that”, “37° C. The concentration range tested for each compound during this study was 0.10 to 100 μM. DMSO served” for “37° C. (MIC values were supported by spectrophotometric readings at OD600). DMSO served”, “1% v/v. All MIC values were obtained from a minimum of three independent experiments.” for “1% v/v.”

[2] = test system: methicillin-sensitive Staphylococcus aureus ATCC 29213; assay: MIC broth microdilution, S. aureus 29213; assay type: cell-based
Method: as §1, with “The MIC was defined as the lowest concentration of compound that prevented bacterial growth after incubating 16 to 18 hours at 37° C.” left out
(§2) Each well was inoculated with ˜10^5 bacterial cells at the initial time of incubation, prepared from a fresh log phase culture (OD600 of 0.5 to 1.0 depending on bacterial strain). […] The concentration range tested for each compound during this study was 0.10 to 100 μM. DMSO served as our vehicle and negative control in each microdilution MIC assay. DMSO was serially diluted with a top concentration of 1% v/v. All MIC values were obtained from a minimum of three independent experiments.

[3] = test system: vancomycin-resistant Enterococcus faecium (VRE strain ATCC 700221); assay: MIC broth microdilution, VRE 700221; assay type: cell-based; conditions: for MIC E. faecium VRE 700221: Table 1A; for MIC VRE 700221: Table 4
Method: as §1
as §1, with “for each compound was” for “for each tested compound was”, “Standards Institute (CLSI).^6 In a” for “Standards Institute (CLSI). In a”, “concentration of test compound that” for “concentration of compound that”, “37° C. The concentration range tested for each compound during this study was 0.10 to 100 μM. DMSO served” for “37° C. (MIC values were supported by spectrophotometric readings at OD600). DMSO served”, “1% v/v. All MIC values were obtained from a minimum of three independent experiments.” for “1% v/v.”

[4] = test system: Acinetobacter baumannii (ATCC 1794); assay: MIC broth microdilution, A. baumannii 1794; assay type: cell-based; conditions: for MIC A. baumannii 1794: Table 1A, in µM; for MIC A. bau. 1794: Table 4
Method: as §1
as §1, with “for each compound was” for “for each tested compound was”, “Standards Institute (CLSI).^6 In a” for “Standards Institute (CLSI). In a”, “concentration of test compound that” for “concentration of compound that”, “37° C. The concentration range tested for each compound during this study was 0.10 to 100 μM. DMSO served” for “37° C. (MIC values were supported by spectrophotometric readings at OD600). DMSO served”, “1% v/v. All MIC values were obtained from a minimum of three independent experiments.” for “1% v/v.”

[5] = test system: SA-138 (clinical isolate); assay: MIC broth microdilution, SA-138; assay type: cell-based, Staphylococcus aureus
Method: as §1, with “The MIC was defined as the lowest concentration of compound that prevented bacterial growth after incubating 16 to 18 hours at 37° C.” left out
as §2

[6] = test system: SA-129 (clinical isolate); assay: MIC broth microdilution, SA-129; assay type: cell-based, Staphylococcus aureus
Method: as §1, with “The MIC was defined as the lowest concentration of compound that prevented bacterial growth after incubating 16 to 18 hours at 37° C.” left out
as §2

[7] = test system: Pseudomonas aeruginosa (PAO1); assay: MIC broth microdilution, PAO1; assay type: cell-based
Method: as §1
as §1, with “for each compound was” for “for each tested compound was”, “Standards Institute (CLSI).^6 In a” for “Standards Institute (CLSI). In a”, “concentration of test compound that” for “concentration of compound that”, “37° C. The concentration range tested for each compound during this study was 0.10 to 100 μM. DMSO served” for “37° C. (MIC values were supported by spectrophotometric readings at OD600). DMSO served”, “1% v/v. All MIC values were obtained from a minimum of three independent experiments.” for “1% v/v.”

[8] = test system: methicillin-resistant Staphylococcus epidermidis (MRSE strain ATCC 35984); assay: MIC broth microdilution, MRSE 35984; assay type: cell-based; conditions: for MIC S. epidermidis MRSE 35984: Table 1A; for MIC MRSE 35984: Table 4
Method: as §1
as §1, with “for each compound was” for “for each tested compound was”, “Standards Institute (CLSI).^6 In a” for “Standards Institute (CLSI). In a”, “concentration of test compound that” for “concentration of compound that”, “37° C. The concentration range tested for each compound during this study was 0.10 to 100 μM. DMSO served” for “37° C. (MIC values were supported by spectrophotometric readings at OD600). DMSO served”, “1% v/v. All MIC values were obtained from a minimum of three independent experiments.” for “1% v/v.”

MRSA BAA-1707 = assay: MIC broth microdilution, MRSA BAA-1707; assay type: cell-based, Staphylococcus aureus; conditions: for MIC MRSA 1707: Table 4; for MIC: read-out: MIC MRSA BAA-1707
Method: as §1, with “The MIC was defined as the lowest concentration of compound that prevented bacterial growth after incubating 16 to 18 hours at 37° C.” left out
as §2

[9] = test system: SA-147 (clinical isolate); assay: MIC broth microdilution, SA-147; assay type: cell-based, Staphylococcus aureus
Method: as §1, with “The MIC was defined as the lowest concentration of compound that prevented bacterial growth after incubating 16 to 18 hours at 37° C.” left out
as §2

MRSA BAA-44 = assay: MIC broth microdilution, MRSA BAA-44; assay type: cell-based, Staphylococcus aureus
Method: as §1, with “The MIC was defined as the lowest concentration of compound that prevented bacterial growth after incubating 16 to 18 hours at 37° C.” left out
as §2

[10] = test system: SA-156 (clinical isolate); assay: MIC broth microdilution, SA-156; assay type: cell-based, Staphylococcus aureus
Method: as §1, with “The MIC was defined as the lowest concentration of compound that prevented bacterial growth after incubating 16 to 18 hours at 37° C.” left out
as §2

[11] = test system: MRSA-1 (clinical isolate); assay: MIC broth microdilution, MRSA-1; assay type: cell-based, Staphylococcus aureus
Method: as §1, with “The MIC was defined as the lowest concentration of compound that prevented bacterial growth after incubating 16 to 18 hours at 37° C.” left out
as §2

[12] = test system: human red blood cells (hRBC); assay: Hemolysis of red blood cells; assay type: cell-based
Method: The washing was repeated three times with the buffer. In a 96-well plate, test compounds were added to the buffer from DMSO stocks. […] The plate was then incubated for 1 hour at 37° C. After incubation, the plate was centrifuged for 5 minutes at 3,500 rpm. Then 80 μL of the supernatant was transferred to another 96-well plate and the optical density (OD) was read at 405 nm. DMSO served as our negative control (0% hemolysis) while Triton X served as our positive control (100% hemolysis). […] All reported data correspond to three independent experiments. Ten-point dose-response curves were generated in 96-well plates to determine 50% hemolysis (HC50 values) of red blood cells.
The washing was repeated three times with the buffer. In 96-well plate, the test compounds were added to the buffer. Then 50 μL of 2% of hRBCs in the buffer were added to the test plate to make the final concentrations ranging from 0.2 to 200 μM of each test compound. The plate was then incubated for 1 hour at 37° C. After incubation, the plate was centrifuged for 5 minutes at 3500 rpm and then 80 μL of the supernatant was transferred to another 96-well plate and the Optical Density (OD) was read at 405 nm. DMSO served as our negative control (0% haemolysis) and Triton X served as our positive control (100% haemolysis). The HC50 (concentration of test compound required to lyse red blood cells by 50%) was calculated by plotting the dose-response curve (not shown) with Graphpad Prism 6.0. All data were obtained from three independent haemolysis experiments.

SMILES	MIC MRSA-2 ([1]; Table 1A)	MIC MRSA-2 ([1]; Table 1B)	MIC MRSA-2 ([1]; Table 3)	MIC MRSA-2 ([1]; Table 4) [a micromolar]	MIC E. faecium VRE 700221 [3]	MIC VRE 700221 [3]	MIC A. baumannii 1794 [4]	MIC A. bau. 1794 [4] [µM]	MIC ([6]; Table 1B) [µM]	MIC ([6]; Table 3) [µM]	MIC PAO1 ([7]; Table 1A) [µM]	MIC PAO1 ([7]; Table 4) [µM]	MIC S. epidermidis MRSE 35984 [8]	MIC MRSE 35984 [8] [a micromolar]	MIC MRSA 1707 (MRSA BAA-1707)	MIC SA-147 ([9]; Table 1B)	MIC SA-147 ([9]; Table 3)	MIC MRSA BAA-44 (MRSA BAA-44; Table 1B)	MIC MRSA BAA-44 (MRSA BAA-44; Table 3)	MIC SA-156 ([10]; Table 1B)	also measured
CCCCCCCCCCCCCCCCn1cc[n+](CCCC)c1C.[Br-] [Compound 9]	2.35^a	2.35^a μM	2.35^a μM	2.35	1.17^a	1.17a micromolar	12.5	12.5	1.56	1.56	> 100	>100	1.17^a	1.17	2.35a micromolar	1.17^a μM	1.17^a μM	2.35^a μM	2.35^a μM	2.35^s μM	MIC S. aureus 29213 ([2]; Table 1B): 2.35^a μM; MIC S. aureus 29213 ([2]; Table 3): 2.35^a μM; MIC SA-138 ([5]; Table 1B): 1.17^a μM; MIC SA-138 ([5]; Table 3): 1.17^a μM; MIC MRSA BAA-1707 (MRSA BAA-1707; Table 1B): 2.35^a μM; MIC MRSA BAA-1707 (MRSA BAA-1707; Table 3): 2.35^a μM; MIC SA-156 ([10]; Table 3): 2.35^a μM; MIC ([11]; Table 1B): 1.56 µM; MIC ([11]; Table 3): 1.56 µM
CCCCCCCCCCCCCCCCn1cc[n+](Cc2cccc(OC)c2)c1C.[Br-] [Compound 17]	1.56 µM	2.35^a μM	2.35^a μM	2.35	1.56 µM	1.56 µM	>100*	>100	3.13	3.13	> 100	>100	2.35^a	2.35	1.56 µM	2.35^a μM	2.35^a μM	2.35^a μM	2.35^a μM	2.35^a μM	MIC ([2]; Table 1B): 3.13 µM; MIC ([2]; Table 3): 3.13 µM; MIC ([5]; Table 1B): 3.13 µM; MIC ([5]; Table 3): 3.13 µM; MIC (MRSA BAA-1707; Table 1B): 1.56 µM; MIC (MRSA BAA-1707; Table 3): 1.56 µM; MIC SA-156 ([10]; Table 3): 2.35^a μM; MIC MRSA-1 ([11]; Table 1B): 4.69^a μM; MIC MRSA-1 ([11]; Table 3): 4.69^a μM
CCCCCCCCCCCCCCCCn1cc[n+](Cc2ccccc2C[n+]2ccn(CCCCCCCCCCCCCCCC)c2C)c1C [AB-3-35]	> 100 µM				> 100 µM		>100				> 100		> 100 µM								HC50 [12]: 34.5 µM
CCCCCCCCCCCCCCCCn1cc[n+](-c2ccc(C(F)(F)F)cc2)c1C.[Br-] [Compound 2]																					RBC HC50 [12]: 13.4 µM; hemolytic activity [12]: potent hemolytic activities
